The structures appear in SMILES notation. pIC50: −log10 of the molar value. Activity calls are given as the source filed them. How the calls were made is not given here. A value given as a limit tells only on which side of the number the result lay.

Among the data in PubChem BioAssay AID1418 (Emory University Molecular Libraries Screening Center, 2008) are IC50 values, retold here.

The test deals with Induced myeloid leukemia cell differentiation protein Mcl-1 (Homo sapiens) (UniProt Q07820). Description: blockers of Bid binding to Mcl-1 – biochemical, TR-FRET, dose response (AID 1418). The settings on record: Mcl-1/Bid peptide binding, TR-FRET (europium/Dy647), 2 hr. (TR-FRET usually uses a lanthanide donor and a delayed reading to cut background.)
Sequence of Induced myeloid leukemia cell differentiation protein Mcl-1 (Homo sapiens) (Q07820 whole entry, looked up): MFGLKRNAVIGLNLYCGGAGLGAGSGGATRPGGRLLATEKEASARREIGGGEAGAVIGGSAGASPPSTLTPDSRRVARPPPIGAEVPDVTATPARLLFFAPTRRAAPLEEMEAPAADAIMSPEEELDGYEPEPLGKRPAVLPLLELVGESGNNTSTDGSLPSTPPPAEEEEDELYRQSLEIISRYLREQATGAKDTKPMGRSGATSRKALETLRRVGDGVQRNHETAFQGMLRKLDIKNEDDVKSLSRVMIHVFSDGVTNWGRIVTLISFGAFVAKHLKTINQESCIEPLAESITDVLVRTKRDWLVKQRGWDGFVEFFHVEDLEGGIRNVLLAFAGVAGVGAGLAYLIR

Broadly, the pIC50 is −log10 of the IC50, conventionally taken in molar units. In the case of `O=C(O)CCC(=O)NCCC1=c2ccccc2=N/C1=C\c1c(O)n(Cc2ccc(F)cc2)c(=S)[nH]c1=O`, the pIC50 is 5.60.

Usually IC50 stands for the point on the concentration scale where inhibition reaches its midpoint. In the case of `Cc1noc2ncnc(SCc3ccc(C(F)(F)F)cc3)c12`, the IC50 was > 54 µM (inactive).

Turning to `COc1cccc(NC(=O)C2c3cc(OC)c(OC)cc3C(=O)N(C)C2c2cccnc2)c1` (centres undefined), the IC50 was > 54 µM (inactive).

Regarding `O=C(Cn1nnc(-c2ccccc2NC(=O)c2cccs2)n1)Nc1ccccc1`, the IC50 was > 54 µM (inactive).
